We go through 64 compounds from a melting point compilation (Tetko et al.; mined from patent text by program, amines drawn as free bases though some values may be those of a salt).

For `CN1C(=O)C2C3C=CC(CC3)C2(c2ccc(F)c(F)c2)C1=O` (centres undefined), the melting point lay in the range of 125 to 127 °C.
The same measure for `CCN(c1nc(C)cc(C(=O)c2ncc[nH]2)n1)c1ccc(C(C)C)cc1Br`: 75 to 76 °C; for `CC(C)CCC(=O)N[C@H]1CC[C@H](CCN2CCC(c3cccc4c3CCO4)CC2)CC1`: 188 °C; for `NCc1ccc(CNc2ncc3ncnc(Nc4ccc(F)c(Cl)c4)c3n2)cc1`: 211 to 213 °C.
`COc1cc(F)c2ncc(F)cc2c1`: the melting point was determined as 122 °C.
The result for `Cc1cc(OCC(=S)Nc2cccc(C(=O)O)c2)ccc1C(C)C` reads 174 to 176 °C; that for `O=C(OCC(=O)c1ccccc1[N+](=O)[O-])c1ccccc1`, 77 to 80 °C.
`O=c1[nH]c2c(cc1S(=O)(=O)c1ccccc1)CCc1cc[nH]c1-2` gave a melting point of 410 °C.
Take `CCn1c(=O)ccc2cnc(Nc3ccc(O)cc3)nc21`: the melting point lay in the range of 222 to 224 °C.
The same measure for `Nc1ccc(C(=O)C[N+](=O)[O-])c(Cl)c1`: 131 to 133 °C; for `COc1nc2cc([N+](=O)[O-])c(C)c(C(=O)Nc3ccccc3)c2nc1OC`: 238 to 240 °C; for `Cc1ccc(S(=O)(=O)NN=C2CCCC(=O)C2Cc2ccccc2)cc1` (centres undefined): 172 to 173 °C.
The result for `CC1(C)C=C(c2ccc3ccccc3n2)c2cc(C#N)ccc2O1` reads 102 to 104 °C; that for `CC1Cc2ccc(Br)cc2C(c2ccc(N)cc2)=NN1C(N)=O` (centres undefined), 218 to 221 °C; that for `CCCCc1ncc(/C=C(\Cc2cccs2)C(=O)O)n1Cc1ccc(CC(=O)O)cc1`, 169 to 171 °C.
`NS(=O)(=O)c1ccc(-n2nc(C(F)(F)F)cc2-c2ccc(-c3ccco3)cc2)cc1Cl`: the melting point is 193 °C.
The compound `CC(CCNC(=O)c1cc2cc(Cl)ccc2[nH]1)n1ccnc1` (centres undefined) displayed a melting point of 210 °C.
`O=S(=O)(c1ccccc1)c1c[nH]c2ccc(N3CCN(Cc4ccccc4)CC3)nc12` gave a melting point of 238 to 239 °C.
The same measure for `O=C(/C=C/C=C(c1cccc(C(F)(F)F)c1)c1cccc(C(F)(F)F)c1)NCCCCc1cccnc1`: 89 to 90 °C; for `CCCOc1c2nc(C(=O)OC)cc(O)c2cc2c(O)cc(C(=O)OC)nc12`: 245 to 247 °C.
For the compound `CN1CCC(=C(c2ccn(C)c2)c2ncc[nH]2)CC1`, the melting point is 155 °C.
`CCOC(=O)c1cc(-c2ccc(C(F)(F)F)cc2)n[nH]1` displayed a melting point of 162 °C.
In the case of `Cc1ccc(S(=O)(=O)N2CCC(c3cccc4c3CCCC(C(=O)Nc3ccc(CN(C)C5CCOCC5)cc3)=C4)CC2)cc1`, the melting point was 175 to 176 °C.
The result for `ClCc1coc(/C=C/c2ccccc2)n1` reads 72 to 73 °C; that for `CC(C)CCC(O)C(CC1CCCCC1)NC(=O)C(Cc1c[nH]cn1)N(C)C(=O)C(Cc1ccccc1)OC(=O)N(C)CCC(=O)N1CCOCC1` (centres undefined), 80 to 87 °C.
The same measure for `CCC(N)(CC)Cc1c[nH]c2ccccc12`: 92 to 94 °C; for `O=C(O)c1cccc2c1oc1ccccc12`: 164 to 165 °C; for `CC(c1ccccc1)N1CC(CF)(C(=O)NCc2ccccc2)CC1=O` (centres undefined): 114 to 116 °C.
The same measure for `Clc1cc(Oc2ccc3ncccc3c2)ncn1`: 136 to 137 °C; for `CCCCC1(O)C(C)=CC(=O)CC1(C)C` (centres undefined): 90 to 93 °C; for `COCCNC(=O)c1cnc(C(=O)O)c(OC)c1`: 160 to 161 °C.
Compound `Cc1cc(I)ccc1OC=C1C=CC=CC1n1nnn(C)c1=O` (centres undefined) had a melting point of 128 to 130 °C.
`Cc1noc([C@@]2(C)CC[C@@H](NCC(=O)N3C[C@@H](F)C[C@H]3C#N)C2(C)C)n1` came in with a melting point of 137 to 141 °C.
The same measure for `Cc1cc2c(cc1O)C(C)(C)CCC2(C)C`: 122 to 123 °C.
For `CC(=O)Nc1cnn2c(C)nc3ccccc3c12`, the melting point was in the range of 258 to 260 °C.
The compound `O=C1CNC(=O)N1Cc1ccc2c(c1)N(C1CCN(CCc3ccc(F)cc3)CC1)CC2` returned a melting point of 191 to 193 °C.
The result for `CCNc1c(C(=O)O)ccc(Br)c1OCC` reads 129 to 139 °C; that for `CC(C)(C)OC(=O)N1CCC(CCN2C(=O)C3(COc4cc5c(cc43)OCO5)c3ccccc32)CC1` (centres undefined), 173 to 175 °C.
The compound `Cc1ccc(-c2nnc(N3CCC(O)C3)nc2-c2ccc(C)cc2)cc1` (centres undefined) showed a melting point of 147 to 150 °C.
The compound `Cc1ccc2c(c1)C(=O)c1cccn1-2` came in with a melting point of 85 °C.
`O=C(Nc1ccc(Cl)c(Cl)c1)c1cc(C(F)(F)F)cc([N+](=O)[O-])c1N1CCCCC1` gave a melting point of 144 °C.
The same measure for `O=C(O)COC(c1ccc(Cl)cc1)c1ccc(Cl)cc1`: 108 to 110 °C.
Compound `C[C@H](CSC(=O)c1ccc(Cl)c(S(N)(=O)=O)c1)C(=O)O` came in with a melting point of 152 to 153 °C.
Take `COc1ccc(SCc2oc(=O)oc2C)cc1`: the melting point lay in the range of 59 to 61 °C.
The same measure for `O=C(c1ccccc1)N1CC(c2ccccc2)c2ccccc21` (centres undefined): 127 to 129 °C.
The compound `COC(=O)C[C@@H]1C[C@@H](COc2ccc(-c3ccc(C#N)cc3)cc2N)N(CCCc2ccccc2)C1=O` had a melting point of 111 to 112 °C.
Regarding `COC(=O)C(c1ccccc1Cl)C1CNc2sc(OC(=O)c3ccc([N+](=O)[O-])cc3)cc2C1` (centres undefined), the melting point was in the range of 100 to 102 °C.
The same measure for `NC1CC(c2c[nH]c3ccc(CC4COC(=O)N4)cc23)C1` (centres undefined): 95 to 100 °C.
The result for `CCCCC(C)OC(=O)Nc1ccc(-c2ncn(-c3ccc(OC(F)(F)F)cc3)n2)cc1` (centres undefined) reads 111 to 113 °C.
Compound `Nc1ncccc1OCc1ccccc1F` had a melting point of 85 to 86 °C.
The result for `CCCCCS(=O)(=O)NC(=O)CCc1ccc(OCCN2CCCC2=O)cc1Oc1ncc(C(F)(F)F)cc1Cl` reads 123 to 126 °C.
The compound `Clc1ccc(C2CCN(CCCOc3ccc4c(c3)CNCCC4)CC2)cc1` showed a melting point of 97 to 99 °C.
For `COCc1c2c(c(COC)n1-c1ccccc1)C(C)(C(N)=O)CC2(C)C` (centres undefined), the melting point is 168 to 170 °C.
As for `O=C(O)c1cc2c(c(-c3ccccc3)c1)C(=O)OC2=S`, the melting point is 237 to 247 °C.
As to `CC(C)(C)c1cc(C(c2ccccc2)N2CCCCC2)c(O)c(C(C)(C)C)c1` (centres undefined), the melting point lay within 140 to 141 °C.
Compound `CC(=O)Nc1c(C#N)c(OC(C)=O)c(C(C)=O)n1C` displayed a melting point of 140 to 141 °C.
The result for `COCc1c(CO)ncc2[nH]c3cccc(Cc4ccc(Cl)cc4)c3c12` reads 220 to 222 °C; that for `CC(=O)Nc1c(C(N)=O)n[nH]c1C(C)C`, 162 to 164 °C; that for `COc1cc(-c2cnc3[nH]cc(C(=O)NCC(C)O)c3n2)cc(OC)c1OC` (centres undefined), 202 to 203 °C.
The same measure for `COC(=O)c1ccc(Cc2c[nH]c3ccc(C=O)cc23)c(OC)c1`: 117 to 120 °C; for `C[C@H](Oc1ccc(-c2cccc(OCC(N)=O)c2)cc1)[C@H](O)CCc1cccnc1`: 120 to 122 °C.
The same measure for `Nc1ccc(-c2cc(OCC(=O)N3CCOCC3)c3c(C(F)(F)F)cccc3n2)cc1`: 174 °C; for `CC1=C(CC2=CC(=O)C=CC2=O)C(=O)C2C=CC=CC2C1=O` (centres undefined): 142 to 144 °C; for `Cc1nc(-c2c(F)cccc2F)nn1-c1ccccc1C(F)(F)F`: 80 to 82 °C.

By melting point is commonly meant the temperature, or range, at which the solid turns liquid.
